Measurements taken from DBAASP.
≈ marks a conversion by molar mass, not a printed value. Where “and” joins values, the source holds several entries; their conditions need not be identical. Identical values can stand only once. Each block holds one compound with its values, some of them ahead of it.

Assays:
Experiment in all cases: ≥ marks a high value that may be exact or a test limit, other limits are often not marked, values filed in µg/mL are converted to µM
[1] = test system: Corynebacterium jeikeium ATCC BAA-949
[2] = test system: Trichophyton mentagrophytes PMC 6528
Candida krusei PMC 0610 = test system: Candida krusei PMC 0610
[3] = test system: Aspergillus brasiliensis DSM 1988
[4] = test system: Trichophyton mentagrophytes DSM 4870
[5] = test system: Trichophyton mentagrophytes PMC 6529
[6] = test system: Candida parapsilosis PMC 0711
[7] = test system: Candida tropicalis DSM 11953
[8] = test system: Aspergillus niger PMC 7101
[9] = test system: Microsporum canis DSM 10708
[10] = test system: Candida albicans ATCC 10231
[11] = test system: Candida parapsilosis DSM 11224
[12] = test system: Cryptococcus neoformans DSM 11759
[13] = test system: Candida albicans ATCC 24433
[14] = test system: Candida glabrata PMC 0805
[15] = test system: Aspergillus terreus PMC 7201
[16] = test system: Trichophyton mentagrophytes PMC 6530
Candida krusei PMC 0624 = test system: Candida krusei PMC 0624
[17] = test system: Staphylococcus aureus ATCC 29213
[18] = test system: Staphylococcus aureus ATCC 33591
[19] = test system: Staphylococcus aureus ATCC 25923
[20] = test system: Salmonella enterica serovar Typhimurium
[21] = test system: Escherichia coli ATCC 35218
[22] = test system: Pseudomonas aeruginosa ATCC 27853
[23] = test system: Escherichia coli ATCC 11229
[24] = test system: Klebsiella pneumoniae ATCC 13866
[25] = test system: Staphylococcus epidermidis ATCC 12228
[26] = test system: Aeromonas hydrophila ATCC 35654
[27] = test system: Escherichia coli ATCC 25922
[28] = test system: Micrococcus luteus ATCC 49732
[29] = test system: Pseudomonas aeruginosa ATCC 9027
[30] = test system: Enterococcus faecalis PCM 2673
Escherichia coli D31 = test system: Escherichia coli D31
[31] = test system: Staphylococcus aureus ATCC 27660
[32] = test system: Salmonella enterica subsp. enterica serovar Typhimurium ATCC 700931
[33] = test system: Staphylococcus epidermidis ATCC 14990
[34] = test system: Pseudomonas aeruginosa ATCC 10145
[35] = test system: Klebsiella pneumoniae E406-17
[36] = test system: Staphylococcus aureus M838-17
[37] = test system: Pseudomonas aeruginosa E411-17
[38] = test system: Clavibacter michiganensis subsp. michiganensis MAFF 301254
[39] = test system: Xanthomonas oryzae pv. oryzae MAFF 311018
[40] = test system: Pyricularia oryzae MAFF 101511

MIC [1]: 16 µM (≈ 23.3 µg/mL)
MIC [2]: ≥ 32 µM
MIC (Candida krusei PMC 0610): ≥ 128 µM
MIC [3]: ≥ 128 µM
MIC [4]: 16 µM (≈ 23.3 µg/mL)
MIC [5]: ≥ 32 µM
MIC [6]: ≥ 128 µM
MIC [7]: 16 µM (≈ 23.3 µg/mL)
MIC [8]: ≥ 128 µM
MIC [9]: ≥ 64 µM
MIC [10]: 16 µM and 21.3 µM
MIC [11]: ≥ 128 µM
MIC [12]: ≥ 32 µM
MIC [13]: ≥ 32 µM
MIC [14]: ≥ 64 µM
MIC [15]: ≥ 128 µM
MIC [16]: ≥ 64 µM
MIC (Candida krusei PMC 0624): ≥ 32 µM
Structure (SMILES): CC[C@H](C)[C@H](NC(=O)CNC(=O)[C@H](CC(N)=O)NC(=O)[C@H](CC(C)C)NC(=O)[C@@H](NC(=O)[C@H](CCCN=C(N)N)NC(=O)CNC(=O)[C@@H](NC(=O)[C@@H](NC(=O)[C@@H]1CCCN1C(=O)[C@H](Cc1ccccc1)NC(=O)[C@@H](N)Cc1ccccc1)C(C)C)[C@@H](C)CC)[C@@H](C)CC)C(=O)N[C@@H](CC(C)C)C(N)=O [FFPVIGRILNGIL]

MIC [17]: 35.9 µM (≈ 64 µg/mL)
MIC [18]: 4.49 µM (≈ 8 µg/mL)
MIC [19]: 35.9 µM (≈ 64 µg/mL)
MIC [20]: ≥ 35.9 µM
MIC [21]: ≥ 35.9 µM
MIC [22]: 18 µM (≈ 32 µg/mL)
MIC [23]: ≥ 35.9 µM
MIC [24]: ≥ 35.9 µM
MIC [25]: 4.49 µM (≈ 8 µg/mL)
Structure (SMILES): CC[C@H](C)[C@H](NC(=O)[C@H](C)NC(=O)[C@H](CCCN=C(N)N)NC(=O)[C@H](CC(C)C)NC(=O)[C@@H](NC(=O)[C@H](CO)NC(=O)CN)C(C)C)C(=O)N[C@@H](CCSC)C(=O)N[C@@H](CCCN=C(N)N)C(=O)N[C@@H](CCSC)C(=O)N[C@@H](Cc1ccccc1)C(=O)N[C@@H](C)C(=O)N[C@@H](CCCCN)C(=O)N[C@@H](CC(C)C)C(=O)N[C@@H](CCSC)C(=O)NCC(=O)O [GSVLRAIMRMFAKLMG]

MIC [26]: 20 µM (≈ 41.8 µg/mL)
MIC [27]: 12 µM (≈ 25.1 µg/mL)
MIC [19]: > 20 µM
MIC [28]: 7.2 µM (≈ 15 µg/mL)
Structure (SMILES): CC[C@H](C)[C@H](NC(=O)[C@H](CC(C)C)NC(=O)[C@H](CCC(N)=O)NC(=O)[C@@H](NC(=O)[C@H](CCCCN)NC(=O)[C@@H](NC(=O)[C@H](CS)NC(=O)[C@H](CCCCN)NC(=O)[C@@H](N)CCCN=C(N)N)C(C)C)C(C)C)C(=O)N[C@@H](CCCCN)C(=O)N[C@@H](CC(N)=O)C(=O)NCC(=O)N[C@@H](CCCN=C(N)N)C(=O)N[C@@H](CCC(N)=O)C(=O)N[C@H](C(=O)N[C@H](C(=O)N[C@@H](C)C(=O)N[C@@H](Cc1ccccc1)C(N)=O)[C@@H](C)O)C(C)C [RKCVKVQLIKNGRQVTAF]

MIC [27]: 43.7 µM (≈ 64 µg/mL)
MIC [19]: 21.8 µM (≈ 32 µg/mL)
MIC [29]: > 350 µM
MIC [10]: 21.8 µM (≈ 32 µg/mL)
MIC [30]: ≥ 43.7 µM
Structure (SMILES): CC[C@H](C)[C@H](NC(=O)[C@H](CCCCN)NC(=O)[C@H](CCCCN)NC(=O)[C@@H](NC(=O)[C@@H](NC(=O)[C@H](CC(=O)O)NC(=O)[C@H](Cc1ccccc1)NC(=O)[C@H](CC(C)C)NC(=O)CN)[C@@H](C)CC)[C@@H](C)CC)C(=O)N[C@@H](C)C(=O)N[C@@H](CCC(=O)O)C(=O)N[C@@H](C)C(=O)N[C@@H](Cc1ccccc1)C(N)=O [GLFDIIKKIAEAF]

MIC (Escherichia coli D31): 0.94 µM (≈ 1.94 µg/mL)
MIC [31]: 1.88 µM (≈ 3.89 µg/mL)
MIC [32]: 1.88 µM (≈ 3.89 µg/mL)
MIC [33]: 0.94 µM (≈ 1.94 µg/mL)
MIC [34]: 1.88 µM (≈ 3.89 µg/mL)
Structure (SMILES): CC[C@H](C)[C@H](NC(=O)[C@H](C)N)C(=O)N[C@@H](Cc1c[nH]c2ccccc12)C(=O)N[C@@H](CCCCN)C(=O)N[C@@H](CCCCN)C(=O)N[C@H](C(=O)N[C@H](C(=O)N[C@@H](CCCCN)C(=O)N[C@@H](CCCCN)C(=O)N[C@H](C(=O)N[C@H](C(=O)N[C@@H](CCCCN)C(=O)N[C@@H](CO)C(=O)N[C@@H](C)C(=O)N[C@@H](CCCCN)C(=O)N[C@@H](CCCCN)C(=O)N[C@H](C(=O)NCC(=O)O)[C@@H](C)CC)[C@@H](C)CC)[C@@H](C)CC)[C@@H](C)CC)[C@@H](C)CC [AIWKKIIKKIIKSAKKIG]

MIC [35]: ≥ 50 µM
MIC [36]: 12.5 µM (≈ 16.3 µg/mL)
MIC [37]: 25 µM (≈ 32.5 µg/mL)
Structure (SMILES): C[C@H](NC(=O)[C@H](Cc1c[nH]c2ccccc12)NC(=O)[C@H](Cc1c[nH]c2ccccc12)NC(=O)[C@H](Cc1c[nH]c2ccccc12)NC(=O)[C@H](Cc1c[nH]c2ccccc12)NC(=O)[C@H](CCCN=C(N)N)NC(=O)[C@H](CCCN=C(N)N)NC(=O)[C@@H](N)CCCN=C(N)N)C(N)=O [RRRWWWWA]

MIC [38]: 10.7 µM (≈ 16 µg/mL)
MIC [39]: ≥ 85.8 µM
MIC [40]: ≥ 85.8 µM
Structure (SMILES): CC[C@H](C)[C@H](NC(=O)[C@@H](N)Cc1ccccc1)C(=O)N[C@@H](Cc1ccccc1)C(=O)N[C@@H](CC(C)C)C(=O)N1CCC[C@H]1C(=O)N[C@H](C(=O)N[C@@H](Cc1ccccc1)C(=O)N[C@@H](CCCN=C(N)N)C(=O)N[C@@H](CCCN=C(N)N)C(=O)N1CCC[C@H]1C(=O)N[C@H](C(=O)N[C@@H](CO)C(N)=O)C(C)C)[C@@H](C)CC [FIFLPIFRRPVS]
